According to paper PMC9952391, “The Role of Acetyl Zingerone and Its Derivatives in Inhibiting UV-Induced, Incident, and Delayed Cyclobutane Pyrimidine Dimers” (Antioxidants, 2023):
Several values for one entry are separate records, joined by “and”; a condition that tells them apart may be missing. Equal entries are not always repeated.

Legend:
[1] = tested on: nitrotyrosine / nitric oxide synthase (NOS) activity in Mel-a melanocytes; test: Immunofluorescence for nitrotyrosine (marker of NOS activity); format: cell-based, mouse; details: 50 µg/mL, 24–36 h
Protocol: Posttranslational modification nitrotyrosine was used as a marker of nitric oxide synthase (NOS) activity. Melanocytes were cultured on collagen-coated, glass-bottom dishes (cat. P35G-1.5-14-C, MatTek, Ashland, MA, USA). After various treatments, cells were fixed with 4% formaldehyde for 10 min at RT, washed with PBS, and permeabilized with 0.5% Triton-X in PBS for 10 min. After blocking for non-specific antibody binding using 5% goat serum (Cat. 16210064, ThermoFisher Scientific) and 1% globulin free BSA (Cat. 001-000-161, Jackson ImmunoResearch, West Grove, PA, USA) in 0.1% Triton-x in PBS (blocking buffer) for 2 h at room temperature, cells were incubated with 1:1000 dilution of anti-nitrotyrosine antibody (Cat. A-21285, ThermoFisher Scientific) overnight at 4 °C. Detection was conducted using Alexa Fluor 488 Goat Anti-rabbit IgG (Cat. A-11008, Life Technologies). Imaging was performed using a ZEISS Axio Observer microscope. Approximately 5–10 images per condition, with ~70–100 cells per image, were quantitated for nitrotyrosine fluorescence using ImageJ software.

melanin in Mel-a cells = test: Melanin amount in melanocytes cultured in varied tyrosine; format: cell-based; details: 50 µg/mL
Protocol: The amino acid tyrosine is essential for melanin synthesis, and it is added to the OptiMem medium at a proprietary concentration by ThermoFisher. Assuming this concentration to be “100% tyrosine”, we purchased the “custom-prepared, tyrosine-free” medium from ThermoFisher. This medium lacked tyrosine or its precursors, which include L-tyrosine, L-tyrosine-2Na-2H2O, L-tyrosine-Di-sodium salt, Hypoxanthine, and Sodium Hypoxanthine. Mel-a (pigmented mouse melanocyte) cells were cultured in regular cell culture medium containing 100% tyrosine, and in medium containing 20%, 4%, or 0% of the total tyrosine amount. This was achieved by diluting the regular OptiMem with the one containing no tyrosine (tyrosine-free, 0% tyrosine). […] Since the cells cultured in 0%-tyrosine medium lost their pigment over time (Figure 5) and the cell pellets were almost white or opaque in color, we assumed that the minimal amount of tyrosine from the horse serum used in the cell culture medium was not sufficient for melanin synthesis. To estimate the amount of melanin, 3 × 10^6–5 × 10^6 cells were lysed in 1M sodium hydroxide (NaOH) by heating them at 100 °C for 1–2 h, which was followed by a 10-min spin at 14,000 rpm at room temperature to remove any cell debris. Absorbance of the supernatant was recorded using the supernatant in a 96-well plate in triplicates from each sample, at 460–490 nm. Synthetic melanin (Cat. M0418, Sigma) was dissolved in methanol and used as a positive control to generate standard curves to estimate the melanin amount in cell lysates. The number of cells in each pellet was used as a normalization factor for each experimental condition. In a complementary experiment, cells were first bleached out of melanin completely by culturing them in tyrosine-free medium, followed by 100/20/4/0% tyrosine (not shown) treatment. This seemed to be cytotoxic, comparatively more so in 100% tyrosine, probably owing to the toxicity of the sudden rush of melanin derivatives and the oxidative stress generated during melanin synthesis.

[2] = tested on: Xpa, Xpc, Mitf, Xrcc1 expression in Mel-c; test: qPCR expression of NER pathway genes, Mel-c; format: cell-based, mouse; details: 24 h incubation
Protocol: (§1) Various cell types were collected 24-h post incubation with 200 µg/mL AZ and MBPD, with and without ssUV exposure. RNA was isolated using a Quick-RNA isolation kit (Cat. R1050, Zymo Research). The cDNA was prepared using a High-Capacity cDNA Reverse Transcription Kit (Cat. 4368814, ThermoFisher Scientific). The gene expression of XPA, XPC, and MITF genes was assessed using the following primers. β-actin was used as an internal control for normalizations and data analyses. F1-R1 and F2-R2 represents two primer pairs which were used in the qPCR experiments.

[3] = tested on: incident CPDs (iCPDs) in HaCaT cells; test: iCPD assessment by DNA ELISA after ssUV, HaCaT; format: cell-based, human; details: various doses, Supplementary Figure S2A
Source text: (§2) For UV exposures, we used a “SOL-UV6 ultraviolet solar simulator” from Newport irradiators. It is equipped with a Xenon arc lamp where the output is varied using the integrated variable attenuator aperture, which provides the ability to vary the output from 10% to 100% of the maximum available solar constants. The output spectrum is flat from 320 nm to 400 nm and no values are below 300 nm. This is abbreviated as “ssUV” for “solar-simulated UV” throughout the text. Various cell types seeded at ~50% confluency, were treated with the AZ and analogs at concentrations mentioned in the data figures for 24–h. Cells at ~80–90% confluency (untreated controls), were washed twice with PBS and exposed to 18 kJ/m^2 of ssUV in minimal amount of PBS (ex. 2 mL PBS in a 60 mm cell culture dish) without any dish lid in place. […] The ssUV apparatus was monitored almost daily using UV meters for any emissions below 300 nm. The dose was decided based upon the 80–90% cell survival post UV exposure. After exposure, one time point was collected immediately to assess iCPDs, whereas more dishes were incubated in cell culture medium, inside the cell culture incubator, for various time points to be collected post UV to assess dCPDs. For dCPD induction, it is important that the cell culture incubator is not opened for at least 30 min (the first time point post UV) to avoid possible interference from the CO2/O2 ratio, which will be altered upon opening the incubator doors. Cells were collected by scraping and washed once with PBS, which was followed by DNA isolation using a Quick DNA miniprep Kit (Cat. D3024, Zymo Research, Irvine, CA, USA). CPDs were assessed using our previously established DNA ELISA protocols. In brief, ELISA was performed using mouse monoclonal Anti-CPD (Cat. CAC-NM-DND-001, Clone TDM-2, CosmoBio, Inc., Carlsbad, CA, USA). […] A measure of 50 µL of 2M H2SO4 was used to stop the reaction as soon as the color developed (5–10 min incubation in substrate), and OD was measured at 490 nm using a Synergy-2 multimode microplate reader (BioTek, Winooski, VT, USA).

[4] = tested on: incident CPDs (iCPDs) in NBHF cells; test: iCPD assessment by DNA ELISA after ssUV, NBHF; format: cell-based, human
Source text: (§3) For UV exposures, we used a “SOL-UV6 ultraviolet solar simulator” from Newport irradiators. It is equipped with a Xenon arc lamp where the output is varied using the integrated variable attenuator aperture, which provides the ability to vary the output from 10% to 100% of the maximum available solar constants. The output spectrum is flat from 320 nm to 400 nm and no values are below 300 nm. This is abbreviated as “ssUV” for “solar-simulated UV” throughout the text. Various cell types seeded at ~50% confluency, were treated with the AZ and analogs at concentrations mentioned in the data figures for 24–h. Cells at ~80–90% confluency (untreated controls), were washed twice with PBS and exposed to 18 kJ/m^2 of ssUV in minimal amount of PBS (ex. 2 mL PBS in a 60 mm cell culture dish) without any dish lid in place. […] The ssUV apparatus was monitored almost daily using UV meters for any emissions below 300 nm. The dose was decided based upon the 80–90% cell survival post UV exposure. After exposure, one time point was collected immediately to assess iCPDs, whereas more dishes were incubated in cell culture medium, inside the cell culture incubator, for various time points to be collected post UV to assess dCPDs. For dCPD induction, it is important that the cell culture incubator is not opened for at least 30 min (the first time point post UV) to avoid possible interference from the CO2/O2 ratio, which will be altered upon opening the incubator doors. Cells were collected by scraping and washed once with PBS, which was followed by DNA isolation using a Quick DNA miniprep Kit (Cat. D3024, Zymo Research, Irvine, CA, USA). CPDs were assessed using our previously established DNA ELISA protocols. In brief, ELISA was performed using mouse monoclonal Anti-CPD (Cat. CAC-NM-DND-001, Clone TDM-2, CosmoBio, Inc., Carlsbad, CA, USA). Flat-bottom, 96-well plates (Cat. 2801, Thermo Scientific, Waltham, MA, USA) were coated overnight with 50 µL of protamine sulphate (0.005–0.05%, Cat. P3369, Sigma, St. Lois, MO, USA) in distilled water. After washing twice with water, heat-denatured DNA was plated in triplicates from each sample, into the protamine sulphate coated plate wells (50–100 ng/well in 50 µL PBS) and incubated overnight at 37 °C. The plates were washed 5 times with 200 µL of PBST (PBS containing 0.05% Tween-20 Cat. P7949, Sigma), and blocked with 2–4% FBS in PBST (blocking buffer) for 1 h at room temperature (RT). The plates were incubated with 100 µL of a 1:1000 dilution of anti-CPD antibody in blocking buffer, and incubated for 30 min at 37 °C, which was followed by 5 washes in PBST. Next, the plates were incubated with 100 µL of a 1:2000 dilution of Biotin-F(ab’)2 fragment of anti-mouse IgG(H+L) (Cat. B-2763, Life Technologies) in blocking buffer for 30 min at 37 °C. Detection was conducted using 100 µL of a 1:10,000 dilution of Streptavidin HRP (Cat. 434323, Life Technologies) in 2% FBS for 30 min at 37 °C, which was followed by 5 washes. The plates were washed once with citrate phosphate buffer (24.3 mM citric acid monohydrate, J.T. Baker Cat. 0110-01- and 51.4-mM sodium phosphate dibasic, Sigma Cat. S7907, pH 5.0). The o-phenylene diamine dihydrochloride (Cat. P8287-50TAB, Sigma) was used as a HRP substrate at 400 µg/mL in citrate phosphate buffer for 5–10 min. A measure of 50 µL of 2M H2SO4 was used to stop the reaction as soon as the color developed (5–10 min incubation in substrate), and OD was measured at 490 nm using a Synergy-2 multimode microplate reader (BioTek, Winooski, VT, USA).

[5] = tested on: Xpa, Xpc, Mitf, Xrcc1 expression in Mel-a; test: qPCR expression of NER pathway genes, Mel-a; format: cell-based, mouse
Protocol: as §1

[6] = tested on: incident CPDs (iCPDs) in albino C57BL/6 melanocytes (Mel-c); test: iCPD assessment by DNA ELISA after ssUV, Mel-c; format: cell-based, mouse; details: various doses up to 1 mg/mL, 24 h, Figure 4B
Source text: as §2

[7] = tested on: incident CPDs (iCPDs) in pigmented C57BL/6 melanocytes (Mel-a); test: iCPD assessment by DNA ELISA after ssUV, Mel-a; format: cell-based, mouse; details: for iCPD inhibition across doses: various doses up to 1 mg/mL, 24 h, Figure 4A
Source text: as §3

[8] = tested on: delayed (dark) CPDs (dCPDs) in Mel-a cells; test: dCPD assessment by DNA ELISA post ssUV, Mel-a; format: cell-based, mouse
Source text: as §2

Compound | Amount of nitrotyrosine (NOS activity marker) [1] | Reduction in melanin (pigmentation) (melanin in Mel-a cells; 20% or less tyrosine, ~2–3 weeks) | Reduction in melanin concentration (melanin in Mel-a cells; 100% tyrosine, ~2–3 weeks) | Cell death on longer incubation (melanin in Mel-a cells; 2–3 weeks incubation) | Gene expression of Xrcc1 [2] | Gene expression of Xpa, Xpc and Mitf (NER pathway) ([2]; no UV) | iCPD inhibition [3] | Blockade of iCPDs ([4]; 50 µg/mL, 24 h preincubation, 18 kJ/m^2 ssUV) | inhibition at 10 µg/mL ([4]; Homo sapiens, 10 ug/mL, Figure 3C, read-out: Inhibition of iCPD formation) | iCPD inhibition across doses ([4]; various doses, Figure 3C / Supplementary Figure S2B) | NER pathway gene expression post UV exposure ([5]; 200 µg/ml, 24 h, then 18 kJ/m2 ssUV, various time points, relative to UV-induced upregulation) | Gene expression of Xpa, Xpc and Mitf (NER pathway) ([5]; 24 h incubation, no UV, qPCR) | Gene expression of Xrcc1 ([5]; 24 h incubation, qPCR) | iCPD inhibition across doses [6] | Blockade of iCPDs ([7]; 50 µg/mL, 24-h preincubation, 18 kJ/m^2 ssUV) | iCPD inhibition across doses [7] | Inhibition of delayed CPDs (dCPDs) ([8]; Mel-a, 50 µg/mL, 24–36 h preincubation, 0.5 to 4 h post ssUV, Figure 4C) | Inhibition of total CPDs (iCPDs + dCPDs) ([8]; extrapolated from 50% iCPD reduction and complete dCPD blockade, pigmented melanocytes) | iCPD inhibition across doses ([7]; listed as RMKE) | Inhibition of iCPD formation ([4]; 50 µg/mL, 24 h preincubation, 18 kJ/m^2 ssUV, Figure 3B)
COc1ccc(CC(C(C)=O)C(C)=O)cc1 [MBPD, 3-(4-Methoxy-benzyl)-pentane-2,4-dione] | reduced the amount of nitrotyrosine | > 50% | ~ 25% | 10–15% | remained unaffected | upregulated | did not show any effect | ~ 50% | 30 to 40% | dose-dependent manner | elevated slightly | upregulated | remained unaffected | no significant impact | ~50% | blocked iCPD generation in a dose-dependent manner | abrogated the delayed CPDs completely | ~ 80% and 70–80% | – | –
COc1ccc(CCC(C)=O)cc1 [RKME, 4-(4-Methoxyphenyl)-butan-2-one, reference compound] | – | – | – | – | – | – | did not show any effect | – | – | – | – | – | – | did not show any impact | – | did not show any impact | – | – | completely abrogated the ability of the molecule to prevent CPD formation | –
COc1cc(CC(C(C)=O)C(C)=O)cc(OC)c1OC [TMBPD, 3-(3,4,5-trimethoxy-benzyl)-pentane-2,4-dione] | – | – | – | – | – | – | – | – | – | – | – | – | – | – | – | – | – | – | – | inhibited iCPD formation to varying extents
